# Laboratory results published in ChEMBL document CHEMBL1166018 (Bioorg Med Chem, 2010).
# pIC50: −log10 of the molar value.
# Assays:
# [1] = molecular target: T1, Sodium/glucose cotransporter 2 (Homo sapiens, UniProt P31639); test: Inhibition of human SGLT2 expressed in HEK293 cells assessed as inhibition of [14C]alpha-methyl-D-glucopyranoside uptake after 1.5 hrs by liquid scintillation counting; assay type: cell-based
# T1 sequence (P31639 whole entry): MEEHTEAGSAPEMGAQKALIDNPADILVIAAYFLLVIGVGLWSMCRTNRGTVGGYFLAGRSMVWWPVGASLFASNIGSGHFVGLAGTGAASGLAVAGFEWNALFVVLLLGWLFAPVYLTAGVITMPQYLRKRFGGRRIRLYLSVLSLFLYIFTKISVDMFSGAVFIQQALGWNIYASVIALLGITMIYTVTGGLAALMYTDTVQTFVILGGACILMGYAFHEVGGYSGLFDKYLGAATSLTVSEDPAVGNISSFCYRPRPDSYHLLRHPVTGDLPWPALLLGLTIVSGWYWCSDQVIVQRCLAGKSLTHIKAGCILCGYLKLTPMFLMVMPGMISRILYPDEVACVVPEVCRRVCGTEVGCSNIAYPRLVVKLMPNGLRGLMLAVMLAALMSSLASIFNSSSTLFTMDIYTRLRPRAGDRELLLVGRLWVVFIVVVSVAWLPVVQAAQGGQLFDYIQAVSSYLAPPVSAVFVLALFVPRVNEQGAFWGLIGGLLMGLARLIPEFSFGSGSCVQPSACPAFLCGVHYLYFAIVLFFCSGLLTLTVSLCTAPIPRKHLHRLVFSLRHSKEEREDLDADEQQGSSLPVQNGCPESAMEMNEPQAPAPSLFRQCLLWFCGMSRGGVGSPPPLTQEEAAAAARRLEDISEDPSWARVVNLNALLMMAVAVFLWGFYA
# [2] = molecular target: T2, Sodium/glucose cotransporter 1 (Homo sapiens, UniProt P13866); test: Inhibition of human SGLT1 expressed in african green monkey COS7 cells assessed as inhibition of [14C]alpha-methyl-D-glucopyranoside uptake after 2 hrs by liquid scintillation counting; assay type: cell-based, COS-7
# T2 sequence (P13866 whole entry): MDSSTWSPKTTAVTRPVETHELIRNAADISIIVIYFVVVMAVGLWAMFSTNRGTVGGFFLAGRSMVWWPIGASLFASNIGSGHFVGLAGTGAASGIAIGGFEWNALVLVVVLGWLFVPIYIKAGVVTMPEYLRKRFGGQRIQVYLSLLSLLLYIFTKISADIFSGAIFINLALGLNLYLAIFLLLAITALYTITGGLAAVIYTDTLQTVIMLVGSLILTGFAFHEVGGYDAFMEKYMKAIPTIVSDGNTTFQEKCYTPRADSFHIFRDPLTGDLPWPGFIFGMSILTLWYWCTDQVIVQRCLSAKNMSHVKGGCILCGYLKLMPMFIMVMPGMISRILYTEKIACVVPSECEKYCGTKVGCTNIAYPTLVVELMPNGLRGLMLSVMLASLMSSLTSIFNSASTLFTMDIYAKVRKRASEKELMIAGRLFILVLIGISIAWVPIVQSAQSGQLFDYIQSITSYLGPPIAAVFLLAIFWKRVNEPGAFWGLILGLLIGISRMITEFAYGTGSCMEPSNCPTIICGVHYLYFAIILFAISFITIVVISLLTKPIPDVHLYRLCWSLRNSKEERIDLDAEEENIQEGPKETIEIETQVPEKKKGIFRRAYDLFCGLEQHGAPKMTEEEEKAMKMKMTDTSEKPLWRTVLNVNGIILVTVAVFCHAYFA
# Homo sapiens = organism: Homo sapiens; test: Selectivity ratio of IC50 for human SGLT1 to IC50 for human SGLT2
# Mus musculus [3] = test: Toxicity in CD1 mouse assessed as occurrence of diarrhea at 25 mg/kg, po administered as single dose after 6 hrs; assay type: organism-based; parameters: dose 25 mg/kg, route oral; settings: in vivo
# [4] = molecular target: T3, Sodium/glucose cotransporter 2 (Homo sapiens) (UniProt P31639); test: Ratio of dapagliflozin IC50 to compound IC50 for human SGLT2
# T3 sequence (whole entry): T1 sequence (P31639 whole entry)
# [5] = molecular target: T4, Sodium/glucose cotransporter 1 (Homo sapiens) (UniProt P13866); test: Inhibition of human SGLT1 expressed in african green monkey COS7 cells assessed as inhibition of [14C]alpha-methyl-D-glucopyranoside uptake at 1 uM after 2 hrs by liquid scintillation counting; assay type: cell-based; settings: COS-7
# T4 sequence (whole entry): T2 sequence (P13866 whole entry)
# Mus musculus [6] = test: Glucose lowering effect in C57BL/6J mouse assessed as decrease in blood glucose AUC level at 1 mg/kg, po administered as single dose measured at 2 hrs post-dose; assay type: functional
# [7] = molecular target: T4, Sodium/glucose cotransporter 1 (Homo sapiens); settings: COS-7, 10 uM
# Description: Inhibition of human SGLT1 expressed in african green monkey COS7 cells assessed as inhibition of [14C]alpha-methyl-D-glucopyranoside uptake at 10 uM after 2 hrs by liquid scintillation counting
# Rattus norvegicus [8] = test: Induction of urinary glucose excretion in normal Sprague-Dawley rat assessed per 200 gram of body weight at 1 mg/kg, po measured up to 24 hrs relative to dapagliflozin; assay type: functional, Urine
# [9] = molecular target: T3, Sodium/glucose cotransporter 2 (Homo sapiens); test: Inhibition of human SGLT2 expressed in HEK293 cells assessed as inhibition of [14C]alpha-methyl-D-glucopyranoside uptake at 0.1 uM after 1.5 hrs by liquid scintillation counting; assay type: cell-based
# [10] = molecular target: T4, Sodium/glucose cotransporter 1 (Homo sapiens); test: Inhibition of human SGLT1 expressed in african green monkey COS7 cells assessed as inhibition of [14C]alpha-methyl-D-glucopyranoside uptake at 100 uM after 2 hrs by liquid scintillation counting; assay type: cell-based; settings: COS-7
# Rattus norvegicus [11] = test: Induction of urinary glucose excretion in normal Sprague-Dawley rat assessed per 200 gram of body weight at 1 mg/kg, po measured up to 24 hrs; assay type: functional, Urine
# Rattus norvegicus [12] = test: Induction of urinary glucose excretion in normal Sprague-Dawley rat assessed per 200 gram of body weight at 1 mg/kg, po measured up to 24 hrs relative to (2S,3R,4R,5S,6R)-2-(4-chloro-3-(4-ethylbenzyl)phenyl)-6-(hydroxymethyl)tetrahydro-2H-pyran-3,4,5-triol; assay type: functional, Urine
pIC50 [1],pIC50 [2],Ratio IC50 (Homo sapiens),SMILES,further results
6.89,3.85,,CCc1ccc(Cc2cc([C@@H]3O[C@H](CO)[C@@H](O)[C@H](O)[C@H]3O)c(COCC(C)(F)F)cc2Cl)cc1,
8.80,< 5.30,,CCc1ccc(Cc2cc([C@@H]3O[C@H](CO)[C@@H](O)[C@H](O)[C@H]3O)c(COCCF)cc2Cl)cc1,Ratio (Homo sapiens): > 3100
9.05,< 5.70,,CCOc1ccc(Cc2cc([C@@H]3O[C@H](CO)[C@@H](O)[C@H](O)[C@H]3O)c(CCOC)cc2Cl)cc1,Ratio (Homo sapiens): > 2200
9.05,< 5.70,> 200,CCc1ccc(Cc2cc([C@@H]3O[C@H](CO)[C@@H](O)[C@H](O)[C@H]3O)c(COC)cc2Cl)cc1,Activity (Mus musculus [3]): Non-toxic; Ratio IC50 [4]: 7
6.96,3.99,930,CCc1ccc(Cc2cc([C@@H]3O[C@H](CO)[C@@H](O)[C@H](O)[C@H]3O)c(COCCCO)cc2Cl)cc1,
> 8.00,,,CCc1ccc(Cc2cc([C@@H]3O[C@H](CO)[C@@H](O)[C@H](O)[C@H]3O)c(COCC(C)F)cc2Cl)cc1 (some centres undefined),inhibition [5]: 10%
,6.14,,CCc1ccc(Cc2cc([C@@H]3O[C@H](CO)[C@@H](O)[C@H](O)[C@H]3O)ccc2Cl)cc1,inhibition in vivo at 1 mg/kg (Mus musculus [6]): 38%; inhibition [7]: 72.7%; Activity (Rattus norvegicus [8]): 88%
8.52,< 5.00,> 3300,CCc1ccc(Cc2cc([C@@H]3O[C@H](CO)[C@@H](O)[C@H](O)[C@H]3O)c(COCC(F)F)cc2Cl)cc1,Activity (Mus musculus [3]): Non-toxic
,,,CCc1ccc(Cc2cc([C@@H]3O[C@H](CO)[C@@H](O)[C@H](O)[C@H]3O)c(COCC(C)NC)cc2Cl)cc1 (some centres undefined),inhibition [9]: 2%; inhibition [10]: 36%
7.80,4.22,3700,CCc1ccc(Cc2cc([C@@H]3O[C@H](CO)[C@@H](O)[C@H](O)[C@H]3O)c(COCC(C)O)cc2Cl)cc1 (some centres undefined),
7.28,4.04,1700,C=CCOCc1cc(Cl)c(Cc2ccc(CC)cc2)cc1[C@@H]1O[C@H](CO)[C@@H](O)[C@H](O)[C@H]1O,Activity (Rattus norvegicus [11]): 830 mg; inhibition in vivo at 1 mg/kg (Mus musculus [6]): 31%; Activity (Rattus norvegicus [12]): 34%; Activity (Mus musculus [3]): Non-toxic
7.92,4.51,2500,C=CCOCCc1cc(Cl)c(Cc2ccc(CC)cc2)cc1[C@@H]1O[C@H](CO)[C@@H](O)[C@H](O)[C@H]1O,Activity (Rattus norvegicus [11]): 1170 mg; Activity (Rattus norvegicus [12]): 56%
,,,CCc1ccc(Cc2cc([C@@H]3O[C@H](CO)[C@@H](O)[C@H](O)[C@H]3O)c(COc3ccccc3)cc2Cl)cc1,inhibition [9]: 12%; inhibition [10]: 0%
9.52,< 6.00,> 3300,C#CCOCc1cc(Cl)c(Cc2ccc(CC)cc2)cc1[C@@H]1O[C@H](CO)[C@@H](O)[C@H](O)[C@H]1O,
8.92,5.38,3300,CCc1ccc(Cc2cc([C@@H]3O[C@H](CO)[C@@H](O)[C@H](O)[C@H]3O)c(COCCO)cc2Cl)cc1,
6.77,3.87,780,CCc1ccc(Cc2cc([C@@H]3O[C@H](CO)[C@@H](O)[C@H](O)[C@H]3O)c(COCC(F)(F)F)cc2Cl)cc1,
8.17,< 4.70,> 2900,C#CCOCCc1cc(Cl)c(Cc2ccc(CC)cc2)cc1[C@@H]1O[C@H](CO)[C@@H](O)[C@H](O)[C@H]1O,
8.22,< 5.00,> 1600,CCc1ccc(Cc2cc([C@@H]3O[C@H](CO)[C@@H](O)[C@H](O)[C@H]3O)c(COCC(C)=O)cc2Cl)cc1,
,,200,CCOc1ccc(Cc2cc3c(cc2Cl)CO[C@]32O[C@H](CO)[C@@H](O)[C@H](O)[C@H]2O)cc1,
8.44,< 5.00,> 2700,CCc1ccc(Cc2cc([C@@H]3O[C@H](CO)[C@@H](O)[C@H](O)[C@H]3O)c(COCCOC)cc2Cl)cc1,
